Results taken from patent US9447053B2, “Process for the preparation of calcobutrol” (Bayer Intellectual Property GMBH, priority 2009, dated 2016).

What was measured:
[1] = pH-potentiometric equilibrium titrations of the ligand (butrol) in the presence of Ca2+ ions; assay type: physicochemical
Protocol: The thermodynamic stability constant of Calcobutrol and the acid dissociation constant have been determined by pH-potentiometric equilibrium titrations of the ligand (butrol) in the presence of Ca^2+ ions (at 25° C., in 0.1 N KCl) at different ratios of Ca^2+:ligand.
Based on these measured values, the distribution of calcium between free calcium ion, neutral complex (Calcobutrol, ligand has two negative charges), and anionic complex (ligand has three negative charges) can be calculated for different pH values. […] Due to this equilibrium between the calcium-containing species, preparative methods in aqueous solution will lead to some impurities.

[2] = Properties of the Calcobutrol product and of Gadovist solutions prepared from it; assay type: physicochemical; details: product of the process
From the text: The Calcobutrol prepared in this manner is characterised by a very high quality. […] The whole process, from Gadobutrol to Calcobutrol, is characterised by a high reproducibility and workability. The total yield of 91.2% is very good. […] The sodium salt of Calcobutrol is obtained through addition of a stoichiometric amount of sodium hydroxide in situ.

thermodynamic stability constant log(KCaL-) ([1]; 25° C., 0.1 N KCl, different ratios of Ca2+:ligand, KCaL-=[CaL-]/[Ca2+][L3-]): 14.67±0.02 | acid dissociation constant pKa ([1]; 25° C., 0.1 N KCl, Ka=[CaL-][H+]/[CaLH]): 3.39±0.12 | share of neutral complex among the calcium-containing species ([1]; calculated from measured constants, at any pH (FIG. 1)): ≤ 20% | solubility in water [2]: soluble in water | storage stability [2]: stable for storage
Structure (SMILES): O=C([O-])CN1CCN(CC(=O)[O-])CCN(C(CO)C(O)CO)CCN(CC(=O)[O-])CC1.O=C([O-])CN1CCN(CC(=O)[O-])CCN(C(CO)C(O)CO)CCN(CC(=O)[O-])CC1.[Ca+2].[Ca+2].[Ca+2] (centres unmarked) [Calcobutrol, calcium complex of 10-(2,3-Dihydroxy-1-(hydroxymethyl)propyl)-1,4,7,10-tetraazacyclodecane-1,4,7-triacetic acid]
